In patent US10918657B2 (priority 2013, dated 2021):

Legend:
[1] = test system: giant reticulospinal (RS) neurons; set-up: species or system Petromyzon marinus; settings: in vivo
[2] = test system: giant reticulospinal (RS) neurons; set-up: species or system Petromyzon marinus; settings: in vivo; remark: listed apart in the source
[3] = test system: Aβ and hyperphosphorylated tau; settings: mouse, in vivo; cited from earlier work
lamprey γ-synuclein = assay type: biochemical, Petromyzon marinus; settings: 100 pM synuclein, varying CLR01 concentrations
Protocol: After purification of GST-tagged lamprey γ-synuclein, GST was cleaved off using thrombin (10 U/mg protein; GE Healthcare). Untagged γ-synuclein was then separated from GST and thrombin using Glutathione Sepharose 4B beads and p-aminobenzamidine agarose ([…]/50 U thrombin; Sigma A7155), respectively, and dialyzed into 0.1M PBS, pH 7.4. Aggregation of the purified lamprey γ-synuclein was analyzed using the thioflavin T (ThT) fluorescence assay and electron microscopy as described previously (Roychaudhuri et al. (2014) J. Mol. Biol. 426: 2422-2441), except that 100 pM synuclein and varying CLR01 concentrations were used.

α-synuclein = α-synuclein (Homo sapiens, UniProt P37840); settings: cited from earlier work
[4] = test system: α-synuclein neurotoxicity; settings: in vivo; cited from earlier work

| Compound | survival of the giant RS neurons at the population level (Nissl (+)) [1] | synuclein immunofluorescence intensity in good survivors [2] [AU] | synuclein immunofluorescence intensity in poor survivors [2] [AU] | effect on accumulation of Aβ and hyperphosphorylated tau [3] | inhibition of lamprey γ-synuclein aggregation (ThT fluorescence) (lamprey γ-synuclein) | effect on α-synuclein clearance in vitro (α-synuclein) | effect on α-synuclein self-assembly and toxicity in vitro (α-synuclein) | increase in neuronal survival across the entire RS neuron population [1] [%] | increase of percentage of Nissl (+) "poor survivors" [1] | synuclein immunofluorescence intensity in "good survivors" [2] [AU] | synuclein immunofluorescence intensity in "poor survivors" [2] [AU] | effect on neurodegeneration and survival in zebrafish model [4] |
| --- | --- | --- | --- | --- | --- | --- | --- | --- | --- | --- | --- | --- |
| 5′-CGC cTg CAT TgC TCT TTg TTT cTC T-3′ [MM MO] | 60.0±8.0 | 26.0±2.4 | 40.7±3.7 |  |  |  |  |  |  |  |  |  |
| 5′-[…]-3′ [Con MO] | 56.7±5.7 | 25.7±1.9 | 42.6±3.5 |  |  |  |  |  |  |  |  |  |
| O=P(O)(O)Oc1c2c(c(OP(=O)(O)O)c3c1[C@H]1C[C@@H]3c3cc4c(cc31)[C@H]1C[C@@H]4c3ccccc31)[C@H]1C[C@@H]2c2cc3c(cc21)[C@H]1C[C@@H]3c2ccccc21 [CLR01] |  |  |  | reduce accumulation of Aβ and hyperphosphorylated tau | inhibited by CLR01 in a dose-dependent manner | facilitates α-synuclein clearance in vitro | inhibits a-synuclein self-assembly and toxicity in vitro | 22 | more than 4 fold | 5.6±1.3 | 25.7±3.1 | reduces neurodegeneration and improves survival |
